Measured values published in publication PMC3961306, “Comparison of the Cancer Gene Targeting and Biochemical Selectivities of All Targeted Kinase Inhibitors Approved for Clinical Use” (PLoS ONE, 2014).

Key:
Assay in all cases: Kinase profiling in a biochemical assay panel (mobility shift assays and ELISA), %-inhibition at 1 μM; selectivity entropy
[1] = target: T1, panel of more than 300 wild-type and mutant kinases (313 kinase panel) (Homo sapiens, UniProt Q96BR1)
T1 sequence (Q96BR1 1-496): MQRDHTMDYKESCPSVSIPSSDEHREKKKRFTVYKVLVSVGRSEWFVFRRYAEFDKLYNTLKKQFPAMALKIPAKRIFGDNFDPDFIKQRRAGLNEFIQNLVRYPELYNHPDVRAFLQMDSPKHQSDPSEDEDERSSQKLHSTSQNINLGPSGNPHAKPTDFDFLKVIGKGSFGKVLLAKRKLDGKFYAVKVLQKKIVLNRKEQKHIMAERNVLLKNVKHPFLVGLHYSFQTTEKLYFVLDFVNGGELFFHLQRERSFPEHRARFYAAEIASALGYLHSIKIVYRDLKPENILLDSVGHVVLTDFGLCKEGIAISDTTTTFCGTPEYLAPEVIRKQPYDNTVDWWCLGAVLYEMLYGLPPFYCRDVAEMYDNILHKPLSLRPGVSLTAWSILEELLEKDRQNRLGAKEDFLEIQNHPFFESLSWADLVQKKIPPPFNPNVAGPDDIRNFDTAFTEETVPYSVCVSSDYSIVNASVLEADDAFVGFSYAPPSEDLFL

[2] = target: panel of more than 300 wild-type and mutant kinases (313 kinase panel) (Homo sapiens, UniProt Q9Y2H1)
[3] = target: panel of more than 300 wild-type and mutant kinases (313 kinase panel) (Homo sapiens, UniProt P22607, K650M)
[4] = target: panel of more than 300 wild-type and mutant kinases (313 kinase panel) (Homo sapiens, UniProt P07947)
[5] = target: panel of more than 300 wild-type and mutant kinases (313 kinase panel) (Homo sapiens, UniProt P05771)
[6] = target: T2, panel of more than 300 wild-type and mutant kinases (313 kinase panel) (Homo sapiens, UniProt Q96PY6)
T2 sequence (Q96PY6 1-1258): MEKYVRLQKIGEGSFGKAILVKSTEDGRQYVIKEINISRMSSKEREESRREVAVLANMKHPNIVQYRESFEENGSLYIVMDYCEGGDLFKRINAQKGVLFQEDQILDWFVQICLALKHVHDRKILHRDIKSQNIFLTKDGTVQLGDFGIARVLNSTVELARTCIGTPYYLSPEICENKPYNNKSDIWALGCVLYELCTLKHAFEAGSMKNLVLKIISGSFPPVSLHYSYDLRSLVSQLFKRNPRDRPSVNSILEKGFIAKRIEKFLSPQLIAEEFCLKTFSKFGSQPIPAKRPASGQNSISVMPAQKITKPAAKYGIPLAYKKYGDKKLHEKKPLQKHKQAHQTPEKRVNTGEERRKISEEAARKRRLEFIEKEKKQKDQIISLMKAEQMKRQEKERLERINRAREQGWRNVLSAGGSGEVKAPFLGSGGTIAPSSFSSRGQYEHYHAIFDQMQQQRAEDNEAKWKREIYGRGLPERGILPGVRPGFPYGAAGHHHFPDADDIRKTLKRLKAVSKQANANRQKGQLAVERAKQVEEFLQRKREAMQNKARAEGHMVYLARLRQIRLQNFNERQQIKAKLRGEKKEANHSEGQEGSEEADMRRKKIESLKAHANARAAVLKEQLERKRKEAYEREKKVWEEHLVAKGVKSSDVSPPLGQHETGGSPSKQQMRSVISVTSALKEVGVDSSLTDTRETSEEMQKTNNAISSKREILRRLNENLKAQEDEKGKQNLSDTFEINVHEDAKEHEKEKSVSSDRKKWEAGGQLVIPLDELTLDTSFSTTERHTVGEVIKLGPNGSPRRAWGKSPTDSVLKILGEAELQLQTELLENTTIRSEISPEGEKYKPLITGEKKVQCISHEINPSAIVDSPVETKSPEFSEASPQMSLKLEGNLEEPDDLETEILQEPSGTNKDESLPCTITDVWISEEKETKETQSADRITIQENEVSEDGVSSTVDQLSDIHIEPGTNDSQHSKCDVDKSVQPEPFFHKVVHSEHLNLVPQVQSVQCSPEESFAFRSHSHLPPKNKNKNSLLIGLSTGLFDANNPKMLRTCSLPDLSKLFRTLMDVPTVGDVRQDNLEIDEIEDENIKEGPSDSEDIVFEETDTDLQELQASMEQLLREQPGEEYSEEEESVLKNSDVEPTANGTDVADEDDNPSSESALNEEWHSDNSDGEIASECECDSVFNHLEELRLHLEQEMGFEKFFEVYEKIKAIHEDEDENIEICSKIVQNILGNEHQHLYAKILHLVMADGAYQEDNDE

[7] = kinase FGFR3(K650M), compound at 1 μM

panel of more than 300 wild-type and mutant kinases (313 kinase panel) (Homo sapiens, UniProt P22607, K650M), sequence (P22607 23-806 K650M): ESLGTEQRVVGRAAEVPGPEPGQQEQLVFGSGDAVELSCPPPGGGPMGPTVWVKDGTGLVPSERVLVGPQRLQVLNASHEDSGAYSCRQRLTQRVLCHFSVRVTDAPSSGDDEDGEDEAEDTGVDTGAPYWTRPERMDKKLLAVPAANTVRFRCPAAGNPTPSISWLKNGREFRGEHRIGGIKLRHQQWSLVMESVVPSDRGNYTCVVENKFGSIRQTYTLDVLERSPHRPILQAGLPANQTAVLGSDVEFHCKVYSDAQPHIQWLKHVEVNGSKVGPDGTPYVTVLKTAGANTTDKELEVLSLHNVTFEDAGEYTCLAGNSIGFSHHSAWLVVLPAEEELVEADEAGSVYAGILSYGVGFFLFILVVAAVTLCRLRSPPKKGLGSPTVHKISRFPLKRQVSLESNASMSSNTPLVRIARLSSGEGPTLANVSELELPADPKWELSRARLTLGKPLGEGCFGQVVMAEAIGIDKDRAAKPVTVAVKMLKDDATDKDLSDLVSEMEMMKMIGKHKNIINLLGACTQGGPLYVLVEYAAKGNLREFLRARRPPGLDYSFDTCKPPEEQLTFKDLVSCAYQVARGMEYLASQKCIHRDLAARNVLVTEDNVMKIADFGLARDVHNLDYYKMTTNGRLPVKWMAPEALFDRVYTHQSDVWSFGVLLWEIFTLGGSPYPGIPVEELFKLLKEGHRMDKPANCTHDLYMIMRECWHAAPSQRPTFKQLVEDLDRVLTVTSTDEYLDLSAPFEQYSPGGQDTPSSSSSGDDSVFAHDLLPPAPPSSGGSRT
panel of more than 300 wild-type and mutant kinases (313 kinase panel) (Homo sapiens, UniProt P07947), sequence (P07947 whole entry, change not shown): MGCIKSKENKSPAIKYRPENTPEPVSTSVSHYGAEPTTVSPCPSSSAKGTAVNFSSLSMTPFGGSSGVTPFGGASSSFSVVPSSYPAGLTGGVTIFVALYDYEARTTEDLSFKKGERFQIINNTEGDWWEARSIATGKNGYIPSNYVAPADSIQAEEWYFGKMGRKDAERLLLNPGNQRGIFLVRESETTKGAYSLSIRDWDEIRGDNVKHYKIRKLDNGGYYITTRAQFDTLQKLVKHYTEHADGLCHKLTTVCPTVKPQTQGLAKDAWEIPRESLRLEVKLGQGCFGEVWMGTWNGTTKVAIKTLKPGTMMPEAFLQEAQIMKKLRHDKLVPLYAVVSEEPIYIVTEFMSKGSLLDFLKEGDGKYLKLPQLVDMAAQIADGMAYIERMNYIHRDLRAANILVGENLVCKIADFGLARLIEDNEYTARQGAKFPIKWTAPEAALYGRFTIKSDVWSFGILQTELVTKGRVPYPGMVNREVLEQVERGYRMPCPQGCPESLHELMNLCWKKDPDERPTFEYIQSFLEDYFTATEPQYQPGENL
panel of more than 300 wild-type and mutant kinases (313 kinase panel) (Homo sapiens, UniProt Q9Y2H1), sequence (Q9Y2H1 whole entry, stated change not applied): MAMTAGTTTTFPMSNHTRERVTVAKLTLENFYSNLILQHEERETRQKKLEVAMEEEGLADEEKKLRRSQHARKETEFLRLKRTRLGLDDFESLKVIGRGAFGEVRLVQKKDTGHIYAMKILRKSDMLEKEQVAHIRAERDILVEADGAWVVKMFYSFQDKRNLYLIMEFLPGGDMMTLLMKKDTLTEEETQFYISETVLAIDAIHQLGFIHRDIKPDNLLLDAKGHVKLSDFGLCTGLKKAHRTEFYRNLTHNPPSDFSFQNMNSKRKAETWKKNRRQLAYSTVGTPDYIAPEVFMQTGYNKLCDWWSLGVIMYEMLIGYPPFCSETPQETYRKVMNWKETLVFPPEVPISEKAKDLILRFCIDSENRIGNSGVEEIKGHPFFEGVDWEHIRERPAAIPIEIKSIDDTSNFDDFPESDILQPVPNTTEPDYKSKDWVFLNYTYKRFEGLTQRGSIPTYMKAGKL

Compound	%-inhibition of SGK3 ([1]; kinase SGK3, 1 μM)	%-inhibition of NDR2 ([2]; kinase NDR2, 1 μM)	%-inhibition of FGFR3(K650M) [3, 7]	%-inhibition of YES ([4]; kinase YES, compound at 1 μM)	%-inhibition of PKCβ1 ([5]; kinase PKCβ1, 1 μM)	%-inhibition of NEK1 ([6]; kinase NEK1, 1 μM)	%-inhibition of SGK3 ([1]; 1 µM)	%-inhibition of NEK1 ([6]; 1 µM)	%-inhibition of YES ([4]; 1 µM)	%-inhibition of NDR2 ([2]; 1 µM)	%-inhibition of FGFR3(K650M) ([3]; 1 µM)	%-inhibition of PKCβ1 ([5]; 1 µM)
CNC(=O)c1cc(Oc2ccc(NC(=O)Nc3ccc(Cl)c(C(F)(F)F)c3)c(F)c2)ccn1 [regorafenib]	-8%	-8.54%	101%	62%	-7%	-7%	–	–	–	–	–	–
CC(=O)Nc1cccc(-n2c(=O)n(C3CC3)c(=O)c3c(Nc4ccc(I)cc4F)n(C)c(=O)c(C)c32)c1 [trametinib]	0.769%	-1.48%	-0.169%	-1.63%	-3.47%	-5%	–	–	–	–	–	–
CCN(CC)CCNC(=O)c1c(C)[nH]c(/C=C2\C(=O)Nc3ccc(F)cc32)c1C [sunitinib]	–	–	97%	99%	–	–	–	–	–	–	–	–
CO[C@H]1C[C@@H]2CC[C@@H](C)[C@@](O)(O2)C(=O)C(=O)N2CCCC[C@H]2C(=O)O[C@H]([C@H](C)C[C@@H]2CC[C@@H](OC(=O)C(C)(CO)CO)[C@H](OC)C2)CC(=O)[C@H](C)/C=C(\C)[C@@H](O)[C@@H](OC)C(=O)[C@H](C)C[C@H](C)/C=C/C=C/C=C/1C [temsirolimus]	-4%	-3.63%	0.626%	-7%	-2%	-8%	–	–	–	–	–	–
CS(=O)(=O)CCNCc1ccc(-c2ccc3ncnc(Nc4ccc(OCc5cccc(F)c5)c(Cl)c4)c3c2)o1 [lapatinib]	–	-6%	1.23%	26%	-6%	–	4.58%	1.5%	–	–	–	–
COc1cc2c(Nc3ccc(Br)cc3F)ncnc2cc1OCC1CCN(C)CC1 [vandetanib]	-8%	-9%	–	100%	-6%	-8%	–	–	–	–	–	–
COc1cc2nccc(Oc3ccc(NC(=O)C4(C(=O)Nc5ccc(F)cc5)CC4)cc3)c2cc1OC [cabozantinib]	-1.1%	-6%	10%	90%	1.48%	-4.23%	–	–	–	–	–	–
N#CC[C@H](C1CCCC1)n1cc(-c2ncnc3[nH]ccc23)cn1 [ruxolitinib]	-5%	89%	16%	–	1.35%	-4%	–	–	24%	–	–	–
Cc1cn(-c2cc(NC(=O)c3ccc(C)c(Nc4nccc(-c5cccnc5)n4)c3)cc(C(F)(F)F)c2)cn1 [nilotinib]	15%	-14%	-21%	44%	3.41%	-23%	–	–	–	–	–	–
C#Cc1cccc(Nc2ncnc3cc(OCCOC)c(OCCOC)cc23)c1 [erlotinib]	–	–	–	–	–	–	8%	5%	51%	-6%	87%	6%
